Experimental findings from US8383657B2, “Thiazolylidine urea and amide derivatives and methods of use thereof” (Abbott Laboratories, priority 2007, dated 2013) are described below.

Usually EC50 stands for the concentration at which the effect is half-maximal.

What all share (type): cell-based
The target in test [1] is T1, human α7 NNR (Homo sapiens, UniProt P36544).
T1 construct: expressed in transfected cells; host or cells: Xenopus laevis oocytes injected with cRNA
In words: Two-electrode voltage-clamp in Xenopus laevis oocytes: potentiation of ACh-evoked α7 currents. The following applies: FIG. 1A. The method, then: (i) Two-Electrode Voltage-Clamp in Xenopus laevis Oocytes.
X. laevis oocytes were prepared for electrophysiological experiments as described in the literature (see for example, Briggs, C. A., Mckenna, D. G., and Piattina-kaplan, M., Human α7 nicotinic acetylcholine receptor responses to novel ligands, Neuropharmacology, 1995, 34: 583-590; Briggs, C. A., and Mckenna, D. G., Activation and inhibition of the human α7 nicotinic acetylcholine receptor by agonists, Neuropharmacology, 1998, 37: 1095-1102). […] Responses were measured by two-electrode voltage clamp using parallel oocyte electrophysiology test station (Abbott, Abbott Park, Ill.) (see for example, Trumbull, J. D., Maslana, E. S., McKenna, D. G., Nemcek, T. A., Niforatos, W., Pan, J. Y., Parihar, A. S., Shieh, C. C., Wilkins, J. A., Briggs, C. A., and Bertrand, D., High throughput electrophysiology using a fully automated, multiplexed recording system, Receptors Channels, 2003, 9: 19-28). […] The data were expressed as percentage potentiation over the response to 0.1 mM ACh alone. […]
Background: In two-electrode clamp one electrode senses voltage and the other passes current.

Test [2] has as its target T2, α7 NNRs (Homo sapiens, UniProt P36544).
T2 construct: using cells natively expressing α7 NNRs; host or cells: IMR-32 neuroblastoma cells
The test is described as follows: High-throughput calcium flux (FLIPR) assay using IMR-32 cells expressing endogenous α7 NNRs. On the set-up: Emax: dose or concentration left out as unconfirmed. For orientation: Calcium flux is commonly read through the fluorescence of an indicator in the cells.
Description: (ii) High-Throughput Calcium Flux Assays Using Cells Expressing Endogenous α7 NNRs
IMR-32 neuroblastoma cells (ATCC) were grown to confluency in 162 cm^2 tissue culture flasks in minimum essential media supplemented with 10% FBS and 1 mM sodium pyruvate, 0.1 mM non-essential amino acids and 1% antibiotic-antimycotic. The cells were then dissociated using cell dissociation buffer and 40 μl of 3.5×10^5 cells/ml cell suspension was plated (about 15,000 cells/well) into black plates with clear bottom and maintained for 48 hours in a tissue culture incubator at 37° C. under an atmosphere of 5% CO2: 95% air. […] Calcium flux was measured using calcium-3 assay kit (Molecular Devices, Sunnyvale, Calif.) or fluo-4. A stock solution of the dye was prepared by dissolving each vial supplied by the vendor in Hank's balanced salt solution buffer (HBSS) containing 20 mM HEPES. The stock solution was diluted 1:20 using the same buffer before use. After removing the growth media, the cells were loaded with 45 μl of the dye and incubated at room temperature for three hours. Fluorescence measurements were read simultaneously from all the wells by a Fluorometric Imaging Plate Reader (FLIPR) at an excitation wavelength of 480 nm and an emission wavelength of 520 nm. Baseline fluorescence was measured for the first 10 seconds at which 5× concentrations of modulator/test compounds were added to the cell plate and incubated for three minutes. The fluorescence intensity was captured every second for the first 1 minute followed by every 5 seconds for an additional 2 minutes. This procedure was followed by 20 μl of 4× concentration of agonist and readings were taken for a period of three minutes as described above. […] The concentration dependence of changes fluorescence responses was fitted by nonlinear regression analysis (GraphPad Prism, San Diego, Calif.) to obtain EC50 values.
PAMs were identified by measuring fluorescence changes to intracellular calcium in a fluorometric plate reader in the presence of selective α7 NNR agonists using cells natively expressing α7 NNRs. […]

Test [3] addresses T3, α7 NNRs (Rattus norvegicus, UniProt Q05941).
T3 construct: host or cells: PC-12 rat pheochromocytoma cells
The test is described as follows: High-throughput ERK phosphorylation assay (in-cell western) using PC-12 cells expressing endogenous α7 NNRs. The method, then:
(iii) High-Throughput ERK Phosphorylation Assays Using Cells Expressing Endogenous α7 NNRs
Rat pheochromocytoma (PC-12) cells (ATCC, Manassas, Va.) were cultured and maintained in F-12K media supplemented with 15% horse serum, 2.5% fetal calf serum, and 2 mM L-glutamine in poly-D lysine coated dishes at 37° C. and 5% CO2. Cells were plated in black-walled clear bottom 96-well Biocoat™ plates coated with poly-D-lysine (BD Biosciences, Bedford, Mass.) and grown for 2-3 days. Afterward, the culture media is replaced with serum-free media to starve cells overnight. On the day of the assay, cell media was removed and cells (60-80% confluent) were treated with agonist and/or modulator in Dulbecco's phosphate buffer saline (D-PBS) (with Ca^2+, Mg^2+, and 1 mg/ml D-glucose), as indicated in the result section.
PC-12 cells are treated for 10 minutes at 37° C. with test PAM compounds and then challenged with a selective α7 agonist for 5 minutes at 37° C. in a final volume of 100 μl/well, unless otherwise indicated. After treatment, media was discarded and adherent cells were immediately fixed in the presence of 150 μl/well of 3.7% formaldehyde/phosphate-buffered saline for 30-60 minutes at room temperature. […] Well intensities were quantitated and phospho-ERK signals were normalized to total ERK signals by the Odyssey software. […]

T2 sequence (P36544 23-502): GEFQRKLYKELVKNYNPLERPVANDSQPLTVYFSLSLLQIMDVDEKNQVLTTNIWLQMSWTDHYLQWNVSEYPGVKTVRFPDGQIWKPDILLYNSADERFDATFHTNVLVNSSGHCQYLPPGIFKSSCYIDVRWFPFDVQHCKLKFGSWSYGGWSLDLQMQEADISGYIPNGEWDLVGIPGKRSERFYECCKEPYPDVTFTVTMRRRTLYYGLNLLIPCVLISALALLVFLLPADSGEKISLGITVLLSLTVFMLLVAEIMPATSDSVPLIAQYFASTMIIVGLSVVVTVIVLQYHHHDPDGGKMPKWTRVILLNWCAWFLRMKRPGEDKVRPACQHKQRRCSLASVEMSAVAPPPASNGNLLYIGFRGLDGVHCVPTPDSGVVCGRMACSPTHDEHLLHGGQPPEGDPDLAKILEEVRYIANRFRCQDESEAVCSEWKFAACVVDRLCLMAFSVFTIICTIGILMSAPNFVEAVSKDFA
T3 sequence (Q05941 23-502): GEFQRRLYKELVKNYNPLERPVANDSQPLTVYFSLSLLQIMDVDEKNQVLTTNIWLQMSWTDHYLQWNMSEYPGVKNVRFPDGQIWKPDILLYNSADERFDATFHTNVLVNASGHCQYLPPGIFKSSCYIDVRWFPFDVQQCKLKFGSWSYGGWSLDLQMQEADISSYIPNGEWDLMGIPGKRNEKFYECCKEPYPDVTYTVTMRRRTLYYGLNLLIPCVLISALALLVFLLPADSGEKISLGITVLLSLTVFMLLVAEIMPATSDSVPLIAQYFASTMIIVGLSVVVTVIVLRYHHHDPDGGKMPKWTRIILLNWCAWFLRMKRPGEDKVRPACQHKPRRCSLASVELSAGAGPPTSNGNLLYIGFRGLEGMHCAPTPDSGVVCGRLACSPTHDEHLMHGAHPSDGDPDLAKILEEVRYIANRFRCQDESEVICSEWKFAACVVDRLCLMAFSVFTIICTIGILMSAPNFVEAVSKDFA
T1 sequence (P36544 23-502): as the sequence (P36544 23-502) above

As to `Cc1cn(-c2ccc(C(F)(F)F)cc2)/c(=N/C(=O)N2CCCC2)s1` [Example 18, N-[(2Z)-5-methyl-3-[4-(trifluoromethyl)phenyl]-1,3-thiazol-2(3H)-ylidene]pyrrolidine-1-carboxamide], the EC50 in test [1] (0.1 mM ACh, oocytes injected with human α7 NNR cRNA, read-out: EC50 value, potentiating 0.1 mM ACh-evoked α7 currents in oocytes) came out at 4 µM; in test [2] (FIG. 1B, IMR-32 cells, agonist 4-(5-phenyl-[1,3,4]oxadiazol-2-yl)-1,4-diaza-bicyclo[3.2.2]nonane at 10 μM, read-out: EC50 value, calcium fluorescence response), 3.4 µM; in test [3] (FIG. 1C, PC-12 cells, α7 selective agonist PNU-282987) it was 1.4 µM. Also, in test [1] (percentage potentiation over the response to 0.1 mM ACh alone), the degree of potentiation came to 300%. Further, the Emax in test [2] (IMR-32, read-out: maximal effects, normalized change in fluorescence) worked out at 110%; in test [3] (PC-12, read-out: maximal efficacy), 111%.

Consider `CCN1C[C@]2(COC(=O)c3ccccc3N3C(=O)C[C@H](C)C3=O)CC[C@H](OC)[C@@]34[C@@H]5C[C@H]6[C@H](OC)[C@@H]5[C@](O)(C[C@@H]6OC)[C@@](O)([C@@H](OC)[C@H]23)[C@@H]14` [methyllycaconitine, reference compound], for which the “effect on calcium response to agonist plus modulator” value in test [2] (IMR-32 cells, α7 selective antagonist) is given as “abolishes response”.
